# Test results reported in paper PMC10746543, “Design principles for cyclin K molecular glue degraders” (Nature Chemical Biology, 2023).
# Several values for one entry are separate records, joined by “and”; a condition that tells them apart may be missing. Identical values can stand only once. Like-named read-outs stand apart in the source and are kept apart here.
# Experiments:
# CDK12–cyclin K = CDK12–cyclin K (Homo sapiens, UniProt Q9NYV4); assay: Lanthascreen kinase binding assay, CDK12; conditions: for Lanthascreen raw signal, sheet CDK12: series r37, duplicates
# Method: (§1) Lanthascreen experiments were performed using commercially available reagents (Thermo Fisher) and according to the manufacturer’s instructions.
# CDK2–cyclin A = target: T1, CDK2–cyclin A (Homo sapiens, UniProt P24941); assay: Lanthascreen kinase binding assay, CDK2; conditions: for Lanthascreen signal, sheet CDK2: raw replicates, experiment r36-r46
# T1 construct: purchased Thermo Fisher
# Method: as §1
# CDK9–cyclin T = target: T2, CDK9–cyclin T (Homo sapiens, UniProt P50750); assay: Lanthascreen kinase binding assay, CDK9; conditions: for Lanthascreen TR-FRET signal (raw ratio), sheet CDK9: third titration set (r25), duplicates
# T2 construct: purchased Thermo Fisher
# Method: as §1
# HEK293T cells = assay: Drug sensitivity assay (CellTiter-Glo viability) with or without MLN4924 pretreatment; assay type: cell-based, human; conditions: Supplementary Table 2
# How it was run: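 Luminescent ATP read-out (CellTiter-Glo) after 3 days of drug exposure, normalised to DMSO controls. Cells were HEK293T–Cas9, pretreated with 100 nM MLN4924 or DMSO for 2 h before drug dispensing.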
# CDK12–cyclin K and DDB1 = target: T3, CDK12–cyclin K and DDB1 (Homo sapiens, UniProt Q16531+Q9NYV4, K965R); assay: TR-FRET ternary complex formation assay (compound titration); assay type: binding
# T3 construct: His6–CDK12 (a.a. 713–1,052); full-length or beta-propeller B domain deletion (ΔBPB: a.a. 396–705 deleted) constructs of His6–DDB1ΔBPB, StrepII–Avi–DDB1, or His6–Spy–DDB1; made in house; host or cells: Trichoplusia ni High Five insect cells (baculovirus)
# How it was run: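 TR-FRET ratio 520/490 nm; 70 μs delay before read to suppress background.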
# [1] = test system: cyclin K–eGFP degradation reporter; assay: Cyclin K reporter stability analysis (dual-color cyclin K–eGFP reporter); assay type: cell-based, human; conditions: source data sheet correlations; read-out: DC50
# How it was run: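 Readout was the eGFP-to-mCherry geometric-mean ratio by flow cytometry, normalized to three DMSO controls, after 5 h drug exposure. Cells used were HEK293T–Cas9 expressing the dual-colour cyclin K–eGFP degradation reporter.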
# T2 sequence (P50750 whole entry): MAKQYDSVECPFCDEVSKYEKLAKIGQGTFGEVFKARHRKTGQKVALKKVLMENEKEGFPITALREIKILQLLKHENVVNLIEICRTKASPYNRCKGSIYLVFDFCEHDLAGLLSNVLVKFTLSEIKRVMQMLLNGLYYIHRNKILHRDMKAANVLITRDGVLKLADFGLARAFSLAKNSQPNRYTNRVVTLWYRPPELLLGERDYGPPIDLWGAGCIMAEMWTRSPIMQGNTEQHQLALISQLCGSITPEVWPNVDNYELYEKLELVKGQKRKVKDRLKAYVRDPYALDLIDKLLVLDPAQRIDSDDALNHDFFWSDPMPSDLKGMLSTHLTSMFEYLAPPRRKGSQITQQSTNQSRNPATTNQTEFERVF
# T2 sequence (O60563 whole entry partner): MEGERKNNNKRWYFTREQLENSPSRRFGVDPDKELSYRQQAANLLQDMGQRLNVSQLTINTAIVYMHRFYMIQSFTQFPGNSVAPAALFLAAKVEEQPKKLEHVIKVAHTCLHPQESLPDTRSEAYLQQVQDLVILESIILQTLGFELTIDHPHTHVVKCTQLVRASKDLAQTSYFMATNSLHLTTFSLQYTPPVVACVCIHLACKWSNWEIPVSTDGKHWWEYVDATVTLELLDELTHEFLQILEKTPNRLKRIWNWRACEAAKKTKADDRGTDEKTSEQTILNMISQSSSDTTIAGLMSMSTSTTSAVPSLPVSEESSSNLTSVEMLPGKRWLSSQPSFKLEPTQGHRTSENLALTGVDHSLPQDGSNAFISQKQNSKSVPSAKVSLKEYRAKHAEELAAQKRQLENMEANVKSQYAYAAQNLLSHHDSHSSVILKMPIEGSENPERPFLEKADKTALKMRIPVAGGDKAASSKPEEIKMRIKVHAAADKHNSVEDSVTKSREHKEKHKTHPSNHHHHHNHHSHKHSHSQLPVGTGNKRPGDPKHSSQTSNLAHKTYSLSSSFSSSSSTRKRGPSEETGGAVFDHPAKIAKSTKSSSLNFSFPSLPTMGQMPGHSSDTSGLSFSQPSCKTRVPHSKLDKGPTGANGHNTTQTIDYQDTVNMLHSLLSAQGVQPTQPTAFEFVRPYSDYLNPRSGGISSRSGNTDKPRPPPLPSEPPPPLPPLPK
# Sequence of CDK12–cyclin K (Q9NYV4 713-1052): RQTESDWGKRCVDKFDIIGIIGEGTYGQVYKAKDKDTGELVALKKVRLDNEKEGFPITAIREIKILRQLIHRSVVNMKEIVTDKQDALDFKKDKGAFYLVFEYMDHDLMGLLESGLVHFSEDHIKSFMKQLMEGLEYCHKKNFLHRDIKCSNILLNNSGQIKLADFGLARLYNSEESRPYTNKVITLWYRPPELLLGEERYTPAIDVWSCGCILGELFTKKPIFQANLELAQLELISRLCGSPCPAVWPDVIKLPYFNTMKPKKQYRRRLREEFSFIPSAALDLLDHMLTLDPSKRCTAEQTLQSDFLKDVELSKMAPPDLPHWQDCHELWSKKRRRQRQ
# Sequence of CDK12–cyclin K (O75909 1-267 partner limits assumed): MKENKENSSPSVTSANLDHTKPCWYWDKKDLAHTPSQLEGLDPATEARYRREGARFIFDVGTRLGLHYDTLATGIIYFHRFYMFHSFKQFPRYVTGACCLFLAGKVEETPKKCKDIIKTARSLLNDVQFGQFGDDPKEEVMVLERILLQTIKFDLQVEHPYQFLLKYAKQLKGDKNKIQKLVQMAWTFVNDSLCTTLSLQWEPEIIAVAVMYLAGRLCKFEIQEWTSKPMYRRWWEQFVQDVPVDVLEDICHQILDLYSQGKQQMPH
# T3 sequence (Q9NYV4 713-1052 K965R): as the sequence (Q9NYV4 713-1052) above, with K253R counted along it
# T3 sequence (O75909 1-267 partner): as the sequence (O75909 1-267 partner limits assumed) above
# T3 sequence (Q16531 whole entry): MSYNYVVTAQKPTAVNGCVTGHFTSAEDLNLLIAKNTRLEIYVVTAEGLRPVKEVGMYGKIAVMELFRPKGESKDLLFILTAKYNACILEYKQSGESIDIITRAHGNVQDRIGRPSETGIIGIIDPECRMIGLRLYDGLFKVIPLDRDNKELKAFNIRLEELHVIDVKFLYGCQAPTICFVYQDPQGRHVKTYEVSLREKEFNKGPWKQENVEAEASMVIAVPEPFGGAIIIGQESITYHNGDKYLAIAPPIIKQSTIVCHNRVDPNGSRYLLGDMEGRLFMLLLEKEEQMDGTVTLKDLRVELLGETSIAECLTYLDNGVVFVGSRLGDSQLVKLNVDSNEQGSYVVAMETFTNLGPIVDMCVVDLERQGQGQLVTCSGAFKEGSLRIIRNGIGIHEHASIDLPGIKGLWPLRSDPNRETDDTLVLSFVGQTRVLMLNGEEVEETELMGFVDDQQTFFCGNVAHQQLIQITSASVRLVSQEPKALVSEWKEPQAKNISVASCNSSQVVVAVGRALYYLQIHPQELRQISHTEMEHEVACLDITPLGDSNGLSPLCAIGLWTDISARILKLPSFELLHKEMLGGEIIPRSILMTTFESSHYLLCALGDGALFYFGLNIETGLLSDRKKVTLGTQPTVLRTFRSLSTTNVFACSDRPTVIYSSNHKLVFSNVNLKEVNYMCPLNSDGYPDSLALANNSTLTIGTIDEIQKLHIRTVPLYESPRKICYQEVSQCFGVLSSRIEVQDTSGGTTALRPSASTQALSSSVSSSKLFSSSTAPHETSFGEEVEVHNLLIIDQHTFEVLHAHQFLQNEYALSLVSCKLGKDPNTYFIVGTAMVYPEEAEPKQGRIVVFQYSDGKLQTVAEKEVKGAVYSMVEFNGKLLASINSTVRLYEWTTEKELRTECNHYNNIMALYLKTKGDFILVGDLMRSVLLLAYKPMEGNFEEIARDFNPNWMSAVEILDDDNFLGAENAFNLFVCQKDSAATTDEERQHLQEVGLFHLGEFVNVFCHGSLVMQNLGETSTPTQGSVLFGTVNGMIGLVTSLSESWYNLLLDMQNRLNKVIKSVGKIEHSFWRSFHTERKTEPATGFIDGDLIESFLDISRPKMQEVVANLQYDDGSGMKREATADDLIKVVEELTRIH
structure (smiles),measurement,setting,value
CC(C)n1cnc2c(NCc3ccc(-c4ccccn4)cc3)nc(N3CCOCC3)nc21 [DS19],IC50,"CDK12–cyclin K; Supplementary Table 2, read-out: Lanthascreen IC50 [nM] CDK12",163 nM
same,"Lanthascreen raw signal, sheet CDK12",CDK12–cyclin K; compound 0.038147 nM,0.01386 and 0.01388
same,"Lanthascreen raw signal, sheet CDK12",CDK12–cyclin K; compound 0.152588 nM,0.01386 and 0.01359
same,"Lanthascreen raw signal, sheet CDK12",CDK12–cyclin K; compound 0.610352 nM,0.01429 and 0.01468
same,"Lanthascreen raw signal, sheet CDK12",CDK12–cyclin K; compound 9.76563 nM,0.01424 and 0.01408
same,"Lanthascreen raw signal, sheet CDK12",CDK12–cyclin K; compound 39.0625 nM,0.0128 and 0.01286
same,"Lanthascreen raw signal, sheet CDK12",CDK12–cyclin K; compound 156.25 nM,0.01155 and 0.01121
same,"Lanthascreen raw signal, sheet CDK12",CDK12–cyclin K; compound 625 nM,0.01099 and 0.009814
same,"Lanthascreen raw signal, sheet CDK12",CDK12–cyclin K; compound 2500 nM,0.009116 and 0.009896
same,"Lanthascreen raw signal, sheet CDK12",CDK12–cyclin K; compound 10000 nM,0.008961 and 0.008941
same,"Lanthascreen signal, sheet CDK2",CDK2–cyclin A; Compound 0.038147 nM,0.0135 and 0.01393
same,"Lanthascreen signal, sheet CDK2",CDK2–cyclin A; Compound 0.152588 nM,0.0137 and 0.01436
same,"Lanthascreen signal, sheet CDK2",CDK2–cyclin A; Compound 0.610352 nM,0.01422 and 0.01354
same,"Lanthascreen signal, sheet CDK2",CDK2–cyclin A; Compound 9.76563 nM,0.01407 and 0.01385
same,"Lanthascreen signal, sheet CDK2",CDK2–cyclin A; Compound 39.0625 nM,0.01288 and 0.01319
same,"Lanthascreen signal, sheet CDK2",CDK2–cyclin A; Compound 156.25 nM,0.01128 and 0.01245
same,"Lanthascreen signal, sheet CDK2",CDK2–cyclin A; Compound 625 nM,0.01025 and 0.01024
same,"Lanthascreen signal, sheet CDK2",CDK2–cyclin A; Compound 2500 nM,0.009848 and 0.009236
same,"Lanthascreen signal, sheet CDK2",CDK2–cyclin A; Compound 10000 nM,0.00863 and 0.008753
same,IC50,"CDK2–cyclin A; Supplementary Table 2, read-out: Lanthascreen IC50 [nM] CDK2",239 nM
same,IC50,"CDK9–cyclin T; Supplementary Table 2, read-out: Lanthascreen IC50 [nM] CDK9",143 nM
same,"Lanthascreen TR-FRET signal (raw ratio), sheet CDK9",CDK9–cyclin T; compound 0.038147 nM,0.02142 and 0.0184
same,"Lanthascreen TR-FRET signal (raw ratio), sheet CDK9",CDK9–cyclin T; compound 0.152588 nM,0.02078 and 0.0198
same,"Lanthascreen TR-FRET signal (raw ratio), sheet CDK9",CDK9–cyclin T; compound 0.610352 nM,0.02132 and 0.01977
same,"Lanthascreen TR-FRET signal (raw ratio), sheet CDK9",CDK9–cyclin T; compound 9.76563 nM,0.02157 and 0.01927
same,"Lanthascreen TR-FRET signal (raw ratio), sheet CDK9",CDK9–cyclin T; compound 39.0625 nM,0.01848 and 0.01637
same,"Lanthascreen TR-FRET signal (raw ratio), sheet CDK9",CDK9–cyclin T; compound 156.25 nM,0.01444 and 0.01311
same,"Lanthascreen TR-FRET signal (raw ratio), sheet CDK9",CDK9–cyclin T; compound 625 nM,0.01104 and 0.009432
same,"Lanthascreen TR-FRET signal (raw ratio), sheet CDK9",CDK9–cyclin T; compound 2500 nM,0.009751 and 0.009192
same,"Lanthascreen TR-FRET signal (raw ratio), sheet CDK9",CDK9–cyclin T; compound 10000 nM,0.008375 and 0.006377
same,EC50,"HEK293T cells; Homo sapiens, HEK-293T, HEK293T viability, 72 h, compound alone, read-out: Cellular assays EC50",0.203 µM
same,Toxicity rescue,"HEK293T cells; MLN4924-mediated cytotoxicity rescue, 10 µM used where n.d.",300%
same,TR-FRET signal at compound concentration 0.468 nM,CDK12–cyclin K and DDB1; raw replicate titration data,0.2796 and 0.2825 and 0.2274 and 0.2285
same,TR-FRET signal at compound concentration 0.468 nM,CDK12–cyclin K and DDB1; raw titration data,0.2796 and 0.2825 and 0.2274 and 0.2285
same,TR-FRET signal at compound concentration 2.16 nM,CDK12–cyclin K and DDB1; raw replicate titration data,0.4207 and 0.4231 and 0.3525 and 0.3569
same,TR-FRET signal at compound concentration 2.16 nM,CDK12–cyclin K and DDB1; raw titration data,0.4207 and 0.4231 and 0.3525 and 0.3569
same,TR-FRET signal at compound concentration 3.6 nM,CDK12–cyclin K and DDB1; raw replicate titration data,0.7048 and 0.756 and 0.6232 and 0.6327
same,TR-FRET signal at compound concentration 3.6 nM,CDK12–cyclin K and DDB1; raw titration data,0.7048 and 0.756 and 0.6232 and 0.6327
same,TR-FRET signal at compound concentration 7.92001 nM,CDK12–cyclin K and DDB1; raw replicate titration data,1.442 and 1.475 and 1.209 and 1.266
same,TR-FRET signal at compound concentration 7.92001 nM,CDK12–cyclin K and DDB1; raw titration data,1.442 and 1.475 and 1.209 and 1.266
same,TR-FRET signal at compound concentration 15.84 nM,CDK12–cyclin K and DDB1; raw replicate titration data,2.559 and 2.574 and 2.155 and 2.284
same,TR-FRET signal at compound concentration 15.84 nM,CDK12–cyclin K and DDB1; raw titration data,2.559 and 2.574 and 2.155 and 2.284
same,TR-FRET signal at compound concentration 30.96 nM,CDK12–cyclin K and DDB1; raw replicate titration data,3.476 and 3.44 and 3.283 and 3.355
same,TR-FRET signal at compound concentration 30.96 nM,CDK12–cyclin K and DDB1; raw titration data,3.476 and 3.44 and 3.283 and 3.355
same,TR-FRET signal at compound concentration 62.6401 nM,CDK12–cyclin K and DDB1; raw replicate titration data,3.895 and 3.93 and 3.8348 and 3.842
same,TR-FRET signal at compound concentration 62.6401 nM,CDK12–cyclin K and DDB1; raw titration data,3.895 and 3.93 and 3.8348 and 3.842
same,TR-FRET signal at compound concentration 125.28 nM,CDK12–cyclin K and DDB1; raw replicate titration data,4.03 and 4.166 and 4.089 and 4.0346
same,TR-FRET signal at compound concentration 125.28 nM,CDK12–cyclin K and DDB1; raw titration data,4.03 and 4.166 and 4.089 and 4.0346
same,TR-FRET signal at compound concentration 244.8 nM,CDK12–cyclin K and DDB1; raw replicate titration data,3.953 and 4.0607 and 4.092 and 4.114
same,TR-FRET signal at compound concentration 244.8 nM,CDK12–cyclin K and DDB1; raw titration data,3.953 and 4.0607 and 4.092 and 4.114
same,TR-FRET signal at compound concentration 993.601 nM,CDK12–cyclin K and DDB1; raw replicate titration data,4.102 and 4.235 and 4.304 and 4.258
same,TR-FRET signal at compound concentration 993.601 nM,CDK12–cyclin K and DDB1; raw titration data,4.102 and 4.235 and 4.304 and 4.258
same,TR-FRET signal at compound concentration 2001.6 nM,CDK12–cyclin K and DDB1; raw replicate titration data,4.005 and 4.144 and 4.249 and 4.271
same,TR-FRET signal at compound concentration 2001.6 nM,CDK12–cyclin K and DDB1; raw titration data,4.005 and 4.144 and 4.249 and 4.271
same,EC50,"CDK12–cyclin K and DDB1; in vitro complex formation, 50 nM CDK12–cyclin K, 100 nM DDB1, text and figures, read-out: TR-FRET EC50",0.014 ± 0.0003 µM
same,EC50,"CDK12–cyclin K and DDB1; sheet MOESM7, read-out: log TR-FRET EC50 (converted)",0.014 µM
same,DC50,[1],0.062 µM
